The results in this text go back to ChEMBL document CHEMBL3351466 (Bioorg Med Chem Lett, 2014).

Each structure is given as a SMILES string.

Assay [1] deals with T1, Transient receptor potential cation channel subfamily V member 1 (Homo sapiens, UniProt Q8NER1). The assay is described as follows: Antagonist activity at human TRPV1 expressed in CHO cells assessed as inhibition of capsaicin-induced increase in intracellular Ca2+ level by FLIPR assay. The assay is classed as cell-based.
The target of assay [2] is T1, Transient receptor potential cation channel subfamily V member 1. In words: Antagonist activity at human TRPV1 expressed in CHO cells assessed as inhibition of heat-induced increase in intracellular Ca2+ level by FLIPR assay. The assay is classed as cell-based.
Assay [3] has the same target. In words: Antagonist activity at human TRPV1 expressed in CHO cells assessed as inhibition of N-arachidonoyl dopamine-induced increase in intracellular Ca2+ level by FLIPR assay. The assay is classed as cell-based.
Assay [4] concerns Mus musculus. In words: Inhibition of capsaicin-induced hypothermia in NMRI mouse compound administered orally 15 mins prior challenge measured 30 mins post challenge. The assay is classed as functional, organism-based.
Assay [5] has as its system Mus musculus. The assay is described as follows: Inhibition of capsaicin-induced hypothermia in NMRI mouse compound at 0.1 mg/kg, po administered 15 mins prior challenge measured 30 mins post challenge. Format: functional.
For assay [6], the system named is Mus musculus. The assay is described as follows: Inhibition of capsaicin-induced hypothermia in NMRI mouse compound at 0.3 mg/kg, po administered 15 mins prior challenge measured 30 mins post challenge. Format: functional.
The test system of assay [7] is Rattus norvegicus. The assay is described as follows: Analgesic activity in orally dosed rat Bennett model for neuropathic pain. The assay is classed as functional, organism-based.
Assay [8] has as its system Rattus norvegicus. In words: Analgesic activity in rat Bennett model for neuropathic pain at 1 mg/kg, po. Format: functional.
Assay [9] deals with Rattus norvegicus. In words: Analgesic activity in rat Bennett model for neuropathic pain at 0.1 mg/kg, po. Format: functional.
Assay [10] concerns Rattus norvegicus. The assay is described as follows: Analgesic activity in rat Bennett model for neuropathic pain […]. The assay is classed as functional.

T1 sequence (Q8NER1 whole entry): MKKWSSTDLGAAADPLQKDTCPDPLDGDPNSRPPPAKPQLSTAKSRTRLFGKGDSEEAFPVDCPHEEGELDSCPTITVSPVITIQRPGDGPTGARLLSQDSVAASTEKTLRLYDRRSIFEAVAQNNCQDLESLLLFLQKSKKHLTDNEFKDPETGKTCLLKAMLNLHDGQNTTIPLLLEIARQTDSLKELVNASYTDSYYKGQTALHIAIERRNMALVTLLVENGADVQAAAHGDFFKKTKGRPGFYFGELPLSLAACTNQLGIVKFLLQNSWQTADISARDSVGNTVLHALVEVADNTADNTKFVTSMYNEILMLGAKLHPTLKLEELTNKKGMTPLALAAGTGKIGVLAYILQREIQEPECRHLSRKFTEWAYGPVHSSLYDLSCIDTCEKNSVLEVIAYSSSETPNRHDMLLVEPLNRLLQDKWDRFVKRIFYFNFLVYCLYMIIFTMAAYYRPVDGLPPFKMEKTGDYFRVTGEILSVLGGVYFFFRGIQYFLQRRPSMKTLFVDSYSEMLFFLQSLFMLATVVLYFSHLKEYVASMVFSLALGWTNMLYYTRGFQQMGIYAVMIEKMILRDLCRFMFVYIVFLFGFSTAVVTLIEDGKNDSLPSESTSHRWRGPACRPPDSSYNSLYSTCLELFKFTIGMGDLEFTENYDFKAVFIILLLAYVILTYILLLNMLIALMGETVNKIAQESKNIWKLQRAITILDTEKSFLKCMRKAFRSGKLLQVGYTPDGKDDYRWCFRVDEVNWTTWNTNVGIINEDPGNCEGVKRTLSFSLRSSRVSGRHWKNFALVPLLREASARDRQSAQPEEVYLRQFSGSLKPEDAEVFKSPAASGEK

For `CC(C(=O)NCc1ccc(C(F)(F)F)nc1C1=CCC(C(C)(C)C)CC1)c1ccc(NS(C)(=O)=O)c(F)c1` (racemic), in assay [1], the inhibitory constant (Ki) amounted to 0.2 nM. Same read-out and setting: under `CC(C(=O)NCc1ccc(C(F)(F)F)nc1[C@H]1CC[C@@H](C(C)(C)C)CC1)c1ccc(NS(C)(=O)=O)c(F)c1` (stereo partly drawn) stands 1.3 nM.

For `CC(C(=O)NCc1ccc(C(F)(F)F)nc1C1CCC(C)(C)CC1)c1ccc(NS(C)(=O)=O)c(F)c1` (racemic), in assay [1], the Ki came out at 0.4 nM. The same measure, in the same setting: to `CCC1CCC(c2nc(C(F)(F)F)ccc2CNC(=O)[C@@H](C)c2ccc(NS(C)(=O)=O)c(F)c2)CC1` (stereo partly drawn) belongs 0.2 nM. The same measure, in the same setting: to `C[C@H](C(=O)NCc1ccc(C(F)(F)F)nc1C1CCC(C)(C)CC1)c1ccc(NS(C)(=O)=O)c(F)c1` belongs 0.3 nM; to `CC(C(=O)NCc1ccc(C(F)(F)F)nc1C1CCC(F)(F)CC1)c1ccc(NS(C)(=O)=O)c(F)c1` (stereo not drawn), 1.5 nM. For the compound `CC(C(=O)NCc1ccc(C(F)(F)F)nc1C1CCCCC1)c1ccc(NS(C)(=O)=O)c(F)c1` (stereo not drawn), the IC50 in assay [2] came out at 14.1 nM. Also, the Ki in [3] turned out to be 0.2 nM. In addition, the inhibition result in [4] is “Dose-dependent effect”. The inhibition in vivo at 0.1 mg/kg in assay [5] came to 24%. In addition, the inhibition in vivo at 0.3 mg/kg in assay [6] turned out to be 78%. Further, the Activity result in assay [7] was “Dose-dependent effect”. In addition, the “%max” value in [8] was 53%; in [9] it was 25%. For `CC(C(=O)NCc1ccc(C(F)(F)F)nc1C1CC2CCC1C2)c1ccc(NS(C)(=O)=O)c(F)c1` (racemic), in [1], the Ki worked out at 1.5 nM.

Consider `CC(C(=O)NCc1ccc(C(F)(F)F)nc1C1CCC(C(C)(C)C)CC1)c1ccc(NS(C)(=O)=O)c(F)c1` (stereo not drawn), for which the Ki in assay [1] turned out to be 0.3 nM. Regarding `C[C@H](C(=O)NCc1ccc(C(F)(F)F)nc1C1=CCC(C)(C)CC1)c1ccc(NS(C)(=O)=O)c(F)c1`, the Ki in [1] came out at 0.1 nM.

Turning to `CC1CC=C(c2nc(C(F)(F)F)ccc2CNC(=O)[C@@H](C)c2ccc(NS(C)(=O)=O)c(F)c2)CC1` (stereo partly drawn), the Ki in assay [1] was found to be 0.2 nM. Still for that read-out and setting: to `C[C@H](C(=O)NCc1ccc(C(F)(F)F)nc1C1=CCC(C(C)(C)C)CC1)c1ccc(NS(C)(=O)=O)c(F)c1` (stereo partly drawn) belongs 0.1 nM.

In the case of `CC(C(=O)NCc1ccc(C(F)(F)F)nc1[C@H]1CC[C@H](C(C)(C)C)CC1)c1ccc(NS(C)(=O)=O)c(F)c1` (stereo partly drawn), the Ki in [1] was 0.3 nM. In assay [10], `CC(C)C[C@H](CN)CC(=O)O` [PREGABALIN] showed an ED50 of 42.2 mg/kg. Consider `CCC1CCC(c2nc(C(F)(F)F)ccc2CNC(=O)C(C)c2ccc(NS(C)(=O)=O)c(F)c2)CC1` (racemic), for which, in assay [1], the Ki was found to be 0.3 nM.

For the compound `CC1CCC(c2nc(C(F)(F)F)ccc2CNC(=O)C(C)c2ccc(NS(C)(=O)=O)c(F)c2)CC1` (stereo not drawn), the Ki in assay [1] was determined as 0.4 nM. As for `CCCc1nc(C(F)(F)F)ccc1CNC(=O)C(C)c1ccc(NS(C)(=O)=O)c(F)c1` (stereo not drawn), the Ki in assay [1] came out at 22.7 nM. The same measure, in the same setting: under `CC1C=C(c2nc(C(F)(F)F)ccc2CNC(=O)C(C)c2ccc(NS(C)(=O)=O)c(F)c2)CCC1` (stereo not drawn) stands 0.2 nM; under `C[C@H](C(=O)NCc1ccc(C(F)(F)F)nc1C1CC2CCC1C2)c1ccc(NS(C)(=O)=O)c(F)c1` (stereo partly drawn), 0.8 nM; under `C[C@H](C(=O)NCc1ccc(C(F)(F)F)nc1C1CCCCC1)c1ccc(NS(C)(=O)=O)c(F)c1`, 0.3 nM. Same read-out and setting: to `CC(C(=O)NCc1ccc(C(F)(F)F)nc1C1=CCC(C)(C)CC1)c1ccc(NS(C)(=O)=O)c(F)c1` (racemic) belongs 0.2 nM.

By Ki is commonly meant the equilibrium dissociation constant of an inhibitor or competing ligand from its target. Usually IC50 stands for the concentration needed to halve the response being measured. As a reminder, the inhibition in vivo is the percentage by which the read-out fell short of the control. Higher therefore signals strong suppression. For orientation: ED50 means the midpoint of the dose-response relation.
